For 17 compounds, surface tension liquid-gas and mass density results are on record in the NIST ThermoML archive (doi:10.1021/je0497294).

Data set [1] in a line: xn = mol fraction of the nth substance listed. The conditions noted are these: 298.15 K, Pendant drop shape.
For data set [2] the following is noted: 298.15 K; for surface tension liquid-gas: Pendant drop shape; for mass density: 101.33 kPa, Liquid.

Usually surface tension liquid-gas stands for the work needed to enlarge the surface of a liquid by unit area. For orientation: mass density means the mass of a sample divided by its volume.

“And” between values parts separate entries of the source, which are not always exact repeats. Equal values may be shown once. ± gives the expanded uncertainty stated by the source.

Regarding `Cc1cc(C)cc(C)c1` [1,3,5-trimethylbenzene] + C[S+](C)[O-], the surface tension liquid-gas worked out at 28.09 ± 0.31 mN/m in data set [1] (x2 = 0); 27.3 ± 0.3 mN/m in data set [1] (x2 = 0.1023); 26.92 ± 0.3 mN/m in data set [1] (x2 = 0.1987); 26.7 ± 0.3 mN/m in data set [1] (x2 = 0.3027); 27.41 ± 0.3 mN/m in data set [1] (x2 = 0.401); 28.4 ± 0.31 mN/m in data set [1] (x2 = 0.4999). The surface tension liquid-gas in data set [1] (x2 = 0.6003) was 30.09 ± 0.33 mN/m; in data set [1] (x2 = 0.699) it was 32.05 ± 0.34 mN/m; in data set [1] (x2 = 0.8003), 34.77 ± 0.37 mN/m; in data set [1] (x2 = 0.8998) it was 37.92 ± 0.39 mN/m.

`Cc1cc(C)cc(C)c1` [1,3,5-trimethylbenzene]: in data set [2], the surface tension liquid-gas was 28.09 ± 0.31 mN/m and 26.76 ± 0.3 mN/m; the mass density amounted to 861.03 ± 0.38 kg/m3.

For `ClC(Cl)(Cl)Cl` [tetrachloromethane], in data set [2], the surface tension liquid-gas is 27.76 ± 0.3 mN/m and 26.76 ± 0.29 mN/m and 28.09 ± 0.3 mN/m; the mass density is given as 1583.8 ± 0.76 kg/m3.

With `C1CCOC1` [tetrahydrofuran], in data set [2], the surface tension liquid-gas amounted to 27.04 ± 0.29 mN/m and the mass density was determined as 882.06 ± 0.21 kg/m3.

With `Cc1ccc(C)c(C)c1` [1,2,4-trimethylbenzene] + C[S+](C)[O-], the surface tension liquid-gas in data set [1] (x2 = 0) worked out at 29.25 ± 0.33 mN/m; in data set [1] (x2 = 0.1007) it was 28.48 ± 0.32 mN/m; in data set [1] (x2 = 0.2007), 28.77 ± 0.32 mN/m; in data set [1] (x2 = 0.3007) it was 28.81 ± 0.32 mN/m; in data set [1] (x2 = 0.3995), 29.1 ± 0.32 mN/m; in data set [1] (x2 = 0.501) it was 29.46 ± 0.32 mN/m. Also, the surface tension liquid-gas in data set [1] (x2 = 0.6012) was determined as 29.34 ± 0.32 mN/m; in data set [1] (x2 = 0.6992) it was 29.35 ± 0.32 mN/m; in data set [1] (x2 = 0.7992), 30.04 ± 0.33 mN/m; in data set [1] (x2 = 0.9013), 35.71 ± 0.38 mN/m.

For the compound `Cc1cc(C)cc(C)c1` [1,3,5-trimethylbenzene] + C1CCOC1, the surface tension liquid-gas in data set [1] (x2 = 0) is recorded as 28.09 ± 0.31 mN/m; in data set [1] (x2 = 0.0481), 27.88 ± 0.31 mN/m; in data set [1] (x2 = 0.2021), 27.72 ± 0.3 mN/m; in data set [1] (x2 = 0.3002) it was 27.57 ± 0.3 mN/m; in data set [1] (x2 = 0.4), 27.44 ± 0.3 mN/m; in data set [1] (x2 = 0.5004), 27.32 ± 0.29 mN/m. Moreover, the surface tension liquid-gas in data set [1] (x2 = 0.601) is recorded as 27.23 ± 0.29 mN/m; in data set [1] (x2 = 0.7003), 27.15 ± 0.29 mN/m; in data set [1] (x2 = 0.7989), 27.09 ± 0.29 mN/m; in data set [1] (x2 = 0.9), 27.06 ± 0.29 mN/m.

In the case of `C[S+](C)[O-]` [dimethyl sulfoxide], in data set [2], the surface tension liquid-gas was 42.09 ± 0.43 mN/m and the mass density turned out to be 1095.54 ± 0.42 kg/m3.

On to `C1CCOC1` [tetrahydrofuran] + Cc1cc(C)cc(C)c1, for which the surface tension liquid-gas in data set [1] (x1 = 1) turned out to be 27.04 ± 0.29 mN/m.

Turning to `Cc1ccc(C)c(C)c1` [1,2,4-trimethylbenzene] + C1CCOC1, the surface tension liquid-gas in data set [1] (x2 = 0) came out at 29.25 ± 0.33 mN/m; in data set [1] (x2 = 0.0988), 29.11 ± 0.32 mN/m; in data set [1] (x2 = 0.2018), 29 ± 0.32 mN/m; in data set [1] (x2 = 0.3003), 28.88 ± 0.31 mN/m; in data set [1] (x2 = 0.3995), 28.73 ± 0.31 mN/m; in data set [1] (x2 = 0.5002) it was 28.53 ± 0.3 mN/m. In addition, the surface tension liquid-gas in data set [1] (x2 = 0.6005) worked out at 28.29 ± 0.3 mN/m; in data set [1] (x2 = 0.6986) it was 28.01 ± 0.3 mN/m; in data set [1] (x2 = 0.7996), 27.68 ± 0.29 mN/m; in data set [1] (x2 = 0.9006), 27.34 ± 0.29 mN/m.

Consider `ClC(Cl)(Cl)Cl` [tetrachloromethane] + Cc1cc(C)cc(C)c1, for which the surface tension liquid-gas in data set [1] (x2 = 0) turned out to be 28.09 ± 0.3 mN/m; in data set [1] (x2 = 0.1009), 27.77 ± 0.3 mN/m; in data set [1] (x2 = 0.2014), 27.53 ± 0.3 mN/m; in data set [1] (x2 = 0.2994), 27.29 ± 0.3 mN/m; in data set [1] (x2 = 0.4007), 27.1 ± 0.3 mN/m; in data set [1] (x2 = 0.4998), 26.99 ± 0.3 mN/m. The surface tension liquid-gas in data set [1] (x2 = 0.5995) is recorded as 26.91 ± 0.3 mN/m; in data set [1] (x2 = 0.6988), 26.86 ± 0.3 mN/m; in data set [1] (x2 = 0.797), 26.83 ± 0.3 mN/m; in data set [1] (x2 = 0.9012) it was 26.81 ± 0.3 mN/m.

As to `Cc1ccc(C)c(C)c1` [1,2,4-trimethylbenzene] + ClC(Cl)(Cl)Cl, the surface tension liquid-gas in data set [1] (x2 = 0) is recorded as 29.25 ± 0.33 mN/m; in data set [1] (x2 = 0.0496), 29.13 ± 0.32 mN/m; in data set [1] (x2 = 0.0996), 29.04 ± 0.32 mN/m; in data set [1] (x2 = 0.1986), 28.89 ± 0.32 mN/m; in data set [1] (x2 = 0.3001), 28.72 ± 0.32 mN/m; in data set [1] (x2 = 0.4006), 28.5 ± 0.31 mN/m. Also, the surface tension liquid-gas was 28.24 ± 0.31 mN/m in data set [1] (x2 = 0.5987), 27.89 ± 0.3 mN/m in data set [1] (x2 = 0.6986), 27.54 ± 0.3 mN/m in data set [1] (x2 = 0.7985) and 27.13 ± 0.29 mN/m in data set [1] (x2 = 0.9011).

Turning to `Cc1cc(C)cc(C)c1` [1,3,5-trimethylbenzene] + ClC(Cl)(Cl)Cl, the surface tension liquid-gas in data set [1] (x1 = 1) was determined as 26.76 ± 0.3 mN/m.

Take `Cc1ccc(C)c(C)c1` [1,2,4-trimethylbenzene]: in data set [2], the surface tension liquid-gas was 29.25 ± 0.33 mN/m and the mass density was found to be 871.64 ± 0.41 kg/m3.

As for `C[S+](C)[O-]` [dimethyl sulfoxide] + Cc1ccc(C)c(C)c1, the surface tension liquid-gas in data set [1] (x1 = 1) worked out at 42.09 ± 0.43 mN/m.

For the compound `C1CCOC1` [tetrahydrofuran] + Cc1ccc(C)c(C)c1, the surface tension liquid-gas in data set [1] (x1 = 1) came out at 27.04 ± 0.29 mN/m.

Turning to `C[S+](C)[O-]` [dimethyl sulfoxide] + Cc1cc(C)cc(C)c1, the surface tension liquid-gas in data set [1] (x1 = 1) was found to be 42.09 ± 0.43 mN/m.

As to `ClC(Cl)(Cl)Cl` [tetrachloromethane] + Cc1ccc(C)c(C)c1, in data set [1] (x1 = 1), the surface tension liquid-gas is given as 26.76 ± 0.29 mN/m.
